Test results from patent publication US20130072517A1 (Avanir Pharmaceuticals, Inc., priority 2002, published 2013).

Key:
[1] = Clinical Study #5: concentrations in plasma of DM, DX and Q and correlation with pain intensity; format: in vivo, human; settings: final visit; for Concentration in plasma, Mean / Concentration in plasma, Median: extensive metabolizers
Description: Subjects visited the clinic every two weeks during the four-week duration of the study and were contacted by telephone during weeks without clinic visits. At each subsequent study visit or weekly phone call, the subjects were given the Pain Intensity Rating Scale and the Pain Relief Rating Scale and were queried regarding any adverse events that might have occurred since their previous visit. Subjects were administered the Peripheral Neuropathy Quality of Life (QOL) Instrument on Days 1 and 29 (or the final visit). Blood samples were taken at the visits on Day 15 and Day 29 to determine concentrations in plasma of DM, DX, and Q.

[2] = Clinical Study #2: plasma pharmacokinetics of dextromethorphan, dextrorphan and quinidine, single and multiple dose; settings: for AUC(0-t) / Cmax / Tmax: human, in vivo, mean; for AUC(0-t): AUC (0-12) (plasma); for Cmax: Cmax (plasma); for Tmax: Tmax (plasma)
Description: Descriptive statistics for each parameter, including mean, median, standard deviation, coefficient of variation, N, minimum, and maximum were calculated for all of the subjects by Day. In addition, descriptive statistics were presented by the subgroups: extensive metabolizer (EM) and poor metabolizer (PM).
The ANOVA model included the factors group (EM or PM), subject within group, day, and the interaction term day by group. The group effect was tested using the subject within group mean square, and all other main effects were tested using the residual error (error mean square). In addition, tests of the hypotheses Day 1=Day 4, Day 1=Day 8, and Day 4=Day 8 were performed.

[3] = format: in vivo
Description: An adverse event was any unfavorable and unintended sign (including an abnormal laboratory finding, for example), symptom, or disease temporally associated with the use of a medicinal product, whether or not considered related to the medicinal product. Changes associated with normal growth and development not varying in frequency or magnitude from that ordinarily anticipated clinically are not adverse events (for example, onset of menstruation occurring at a physiologically appropriate time). Clinical adverse events were described by diagnosis and not by symptoms when possible (for example, cold or seasonal allergies, instead of “runny nose”).
The severity of adverse events was graded on a 3-point scale and reported in detail as indicated on the Case Report Form: mild—easily tolerated, causing minimal discomfort, and not interfering with normal everyday activities; moderate—sufficiently discomforting to interfere with normal everyday activities; and severe—incapacitating and/or preventing normal everyday activities.
Subjects were instructed to promptly report any adverse event. The serious adverse event was assessed for the following details: seriousness of event, start date, stop date, intensity, frequency, relationship to test drug, action taken regarding test drug, treatment required, and outcome to date. These details were recorded on the Case Report Form. Such preliminary reports were followed by detailed descriptions that included copies of hospital case reports, autopsy reports, and other documents when requested and applicable.
Blood and urine were collected at the screening visit and Day 29 for clinical chemistry, hematology, urinalysis, and pregnancy testing. In the event of an abnormal laboratory test value, the test was repeated within one week, and the subject was followed up until the value returned to the normal range and/or until an adequate explanation of the abnormality was found.
Values were obtained for systolic and diastolic blood pressure, heart rate, and respiration rate on the screening visit and all other study visits. All values outside the pre-defined ranges were flagged in the subject data listings. Electrocardiography (twelve lead) was used to obtain ventricular rate (VR), QT, Q-Tc intervals, […] (PR), and QRS duration. A blood sample (10 mL whole blood) was taken from each subject at the Screening Visit for CYP2D6 genotyping to determine which subjects were poor metabolizers of DM and which were extensive metabolizers. Blood samples were taken on Day 29 for the determination of concentrations of DM, DX, and Q in plasma. The relationship between the concentration of drug in plasma and changes in CNS-LS scores was determined, and the effect of the CYP2D6 genotype on this relationship was evaluated.

[4] = Day 1, All Subjects, 30 mg DM HBr/25 mg Q sulfate capsule every 12 hours
[5] = Day 1, EM, 30 mg DM HBr/25 mg Q sulfate capsule every 12 hours
[6] = Day 1, PM, 30 mg DM HBr/25 mg Q sulfate capsule every 12 hours
[7] = Day 4, All Subjects, 30 mg DM HBr/25 mg Q sulfate capsule every 12 hours
[8] = Day 4, EM, 30 mg DM HBr/25 mg Q sulfate capsule every 12 hours
[9] = Day 4, PM, 30 mg DM HBr/25 mg Q sulfate capsule every 12 hours
[10] = Day 8, All Subjects, 30 mg DM HBr/25 mg Q sulfate capsule every 12 hours
[11] = Day 8, EM, 30 mg DM HBr/25 mg Q sulfate capsule every 12 hours
[12] = Day 8, PM, 30 mg DM HBr/25 mg Q sulfate capsule every 12 hours

CN1CC[C@@]23CCCC[C@@H]2[C@@H]1Cc1ccc(O)cc13 [Dextrorphan, dextrorphan]
Concentration in plasma, Mean ([1]; DM/Q MTD 30 mg): 70.7 ng/mL
Concentration in plasma, Median ([1]; DM/Q MTD 30 mg): 94.6 ng/mL
Concentration in plasma, Mean ([1]; DM/Q MTD 60 mg): 65.4 ng/mL
Concentration in plasma, Median ([1]; DM/Q MTD 60 mg): 58.2 ng/mL
Concentration in plasma, Mean ([1]; DM/Q MTD 90 mg): 88.4 ng/mL
Concentration in plasma, Median ([1]; DM/Q MTD 90 mg): 88.4 ng/mL
Concentration in plasma, Mean ([1]; DM/Q MTD 120 mg): 146.6 ng/mL
Concentration in plasma, Median ([1]; DM/Q MTD 120 mg): 122.6 ng/mL
Concentration in plasma, Mean ([1]; Total, all MTDs): 123.9 ng/mL
Concentration in plasma, Median ([1]; Total, all MTDs): 102.6 ng/mL
Concentration in plasma ([1]; poor metabolizer (MTD of 60 mg)): 41.0 ng/mL
AUC(0-t) [2, 4]: 749 ng·h/mL
AUC(0-t) [2, 5]: 934 ng·h/mL
AUC(0-t) [2, 6]: 91 ng·h/mL
AUC(0-t) [2, 7]: 742 ng·h/mL
AUC(0-t) [2, 8]: 849 ng·h/mL
AUC(0-t) [2, 9]: 365 ng·h/mL
AUC(0-t) [2, 10]: 896 ng·h/mL
AUC(0-t) [2, 11]: 1000 ng·h/mL
AUC(0-t) [2, 12]: 530 ng·h/mL
Cmax [2, 4]: 99.5 ng/mL
Cmax [2, 5]: 125 ng/mL
Cmax [2, 6]: 10.8 ng/mL
Cmax [2, 7]: 69.9 ng/mL
Cmax [2, 8]: 79.3 ng/mL
Cmax [2, 9]: 37 ng/mL
Cmax [2, 10]: 108 ng/mL
Cmax [2, 11]: 124 ng/mL
Cmax [2, 12]: 51.5 ng/mL
Tmax [2, 4]: 3.78 h
Tmax [2, 5]: 4 h
Tmax [2, 6]: 3 h
Tmax [2, 7]: 2.17 h
Tmax [2, 8]: 2.21 h
Tmax [2, 9]: 2 h
Tmax [2, 10]: 32.7 h
Tmax [2, 11]: 41.2 h
Tmax [2, 12]: 2.99 h
Fold increase in AUC (0-12) from Day 1 to Day 8 ([2]; poor metabolizers): 4.8 fold

C=C[C@H]1C[N@@]2CC[C@H]1C[C@@H]2[C@@H](O)c1ccnc2ccc(OC)cc12 [Quinidine, quinidine]
Subjects with dizziness ([3]; 28 days, twice daily): 2.7%
Subjects with nausea ([3]; 28 days, twice daily): 8.1%
Subjects with somnolence ([3]; 28 days, twice daily): 0%
Subjects who withdrew because of adverse events ([3]; human, in vivo, 29 days): 8.1%
Subjects reporting serious adverse events ([3]; judged not related to the study drug): only other serious adverse event
Tmax [2]: 1.71 h
